Data taken from ChEMBL document CHEMBL4421732, “Use of small molecule inhibitors targeting EYA tyrosine phosphatase” (2017).
The source made the active and inactive calls. No cut-off for these calls is given here.

How the values were obtained:
Aorta [1] = test: Inhibition of micro-vessel branching in […] mouse aorta cultured in collagen gels assessed as reduction in aortic ring sprouting at 7.5 uM by aortic ring sprouting assay; type: functional, tissue-based
Aorta [2] = test: Inhibition of micro-vessel branching in […] mouse aorta cultured in collagen gels assessed as reduction in initial sprouting at 7.5 uM by aortic ring sprouting assay; type: functional, tissue-based
Aorta [3] = test: Inhibition of micro-vessel branching in […] mouse aorta cultured in collagen gels assessed as attenuation of branching at 7.5 uM by aortic ring sprouting assay; type: functional, tissue-based
[4] = target: T1, Protein phosphatase EYA2 (Homo sapiens) (UniProt O00167); test: Inhibition of EYA2 (unknown origin) stably transfected in human MCF10A cells assessed as inhibition of cell migration at 7.5 uM by transwell assay; type: cell-based
T1 sequence (whole entry): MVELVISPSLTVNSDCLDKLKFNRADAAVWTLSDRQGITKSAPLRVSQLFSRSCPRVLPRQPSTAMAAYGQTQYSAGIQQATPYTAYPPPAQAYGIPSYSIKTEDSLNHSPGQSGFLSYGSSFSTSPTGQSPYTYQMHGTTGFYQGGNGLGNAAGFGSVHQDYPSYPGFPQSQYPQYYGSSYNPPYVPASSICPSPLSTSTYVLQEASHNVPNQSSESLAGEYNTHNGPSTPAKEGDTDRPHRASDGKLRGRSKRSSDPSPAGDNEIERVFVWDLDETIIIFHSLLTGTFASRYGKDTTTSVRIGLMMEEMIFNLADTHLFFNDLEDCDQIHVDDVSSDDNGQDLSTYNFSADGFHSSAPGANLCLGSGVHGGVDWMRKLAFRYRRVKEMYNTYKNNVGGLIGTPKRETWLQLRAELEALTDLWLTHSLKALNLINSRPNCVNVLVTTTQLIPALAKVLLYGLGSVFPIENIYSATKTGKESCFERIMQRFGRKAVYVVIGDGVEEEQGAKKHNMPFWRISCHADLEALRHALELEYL

HUVEC = test: Inhibition of cell proliferation of HUVEC incubated for 3 days by WST8 dye based assay relative to control; type: functional; conditions: for inhibition: Homo sapiens
Danio rerio [5] = organism: Danio rerio; test: Induction of vasculature defects in 5.25 hpf stage FLK1-GFP transgenic Zebrafish embryos assessed as reduction in intersegmental vessel number and extension measured at 24 hpf stage by fluorescence microscopy; type: functional, organism-based
Danio rerio [6] = organism: Danio rerio; test: Induction of vasculature defects in 5.25 hpf stage FLK1-GFP transgenic Zebrafish embryos assessed as reduction of intersegmental vessels at 0.25 uM measured at 24 hpf stage by fluorescence microscopy; type: functional, organism-based
Danio rerio [7] = organism: Danio rerio; test: Induction of vasculature defects in 20 hpf stage FLK1-GFP transgenic Zebrafish embryos measured at 24 hpf stage by fluorescence microscopy; type: functional, organism-based
Danio rerio [8] = organism: Danio rerio; test: Induction of general morphology changes in 20 hpf stage FLK1-GFP transgenic Zebrafish embryos measured at 24 hpf stage by fluorescence microscopy; type: functional, organism-based
[9] = target: T2, Protein phosphatase EYA3 (Homo sapiens) (UniProt Q99504); conditions: 3 to 10 uM
T2 sequence (whole entry): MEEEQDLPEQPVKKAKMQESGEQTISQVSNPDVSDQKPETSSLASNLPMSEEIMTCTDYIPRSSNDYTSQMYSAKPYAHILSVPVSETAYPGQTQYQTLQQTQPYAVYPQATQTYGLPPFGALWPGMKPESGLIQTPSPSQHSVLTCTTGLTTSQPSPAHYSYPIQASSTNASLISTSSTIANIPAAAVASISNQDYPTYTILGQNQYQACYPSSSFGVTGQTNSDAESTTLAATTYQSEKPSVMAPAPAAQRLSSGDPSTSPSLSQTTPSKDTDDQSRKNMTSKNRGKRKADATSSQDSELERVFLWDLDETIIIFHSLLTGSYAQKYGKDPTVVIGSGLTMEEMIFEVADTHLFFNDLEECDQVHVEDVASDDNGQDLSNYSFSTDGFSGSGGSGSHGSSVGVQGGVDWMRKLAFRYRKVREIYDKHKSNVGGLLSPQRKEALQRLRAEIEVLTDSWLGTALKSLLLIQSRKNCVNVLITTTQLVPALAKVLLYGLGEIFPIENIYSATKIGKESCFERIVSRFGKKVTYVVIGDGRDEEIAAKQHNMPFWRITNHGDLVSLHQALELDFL
Description: Competitive inhibition of poly-histidine and GST-tagged full length human Eya3 isoform 2 (127 to 573 residues) at 3 to 10 uM using para-nitrophenol phosphate substrate incubated for 30 mins

[10] = target: T2, Protein phosphatase EYA3 (Homo sapiens); conditions: 5 to 10 uM
Description: Inhibition of poly-histidine and GST-tagged full length human Eya3 isoform 2 (127 to 573 residues) assessed as reduction in Vmax at 5 to 10 uM using para-nitrophenol phosphate substrate incubated for 30 mins

[11] = target: T2, Protein phosphatase EYA3 (Homo sapiens); conditions: 5 to 10 uM; remark: listed apart in the source
Description: Inhibition of poly-histidine and GST-tagged full length human Eya3 isoform 2 (127 to 573 residues) assessed as reduction in Km at 5 to 10 uM using para-nitrophenol phosphate substrate incubated for 30 mins

SMILES	inhibition (Aorta [1])	inhibition (Aorta [2])	inhibition (Aorta [3])	inhibition [4]	Activity (Danio rerio [5])	Activity (Danio rerio [6])	Activity (Danio rerio [7])	Activity (Danio rerio [8])	also measured
CCc1oc2ccc(O)cc2c1C(=O)c1cc(Br)c(O)c(Br)c1	Dose-dependent effect	Dose-dependent effect	Dose-dependent effect						
Cc1oc2ccccc2c1C(=O)c1cc(I)c(O)c(I)c1	Dose-dependent effect	Dose-dependent effect	Dose-dependent effect						
CC(O)CCc1oc2ccccc2c1C(=O)c1cc(I)c(O)c(I)c1 (configuration not stated)	inactive	inactive	inactive						
CCc1oc2ccccc2c1C(=O)c1ccc(O)cc1				Active	Dose-dependent effect	inactive	inactive	inactive	inhibition (HUVEC): inactive
CCc1oc2cc(O)ccc2c1C(=O)c1cc(Br)c(O)c(Br)c1	Dose-dependent effect	Dose-dependent effect	Dose-dependent effect						inhibition (INH) (HUVEC): >50%
CCCCc1oc2ccccc2c1C(=O)c1cc(I)c(O)c(I)c1	Dose-dependent effect	Dose-dependent effect	Dose-dependent effect						
Cc1oc2ccccc2c1C(=O)c1ccc(O)c(I)c1	Dose-dependent effect	Dose-dependent effect	Dose-dependent effect						
CCc1oc2ccccc2c1C(=O)c1cc(Br)c(O)c(Br)c1				Active	Dose-dependent effect	Active	inactive	inactive	inhibition (HUVEC): inactive; inhibition [9]: inactive; inhibition [10]: Active; inhibition [11]: Active
CCCCc1oc2ccccc2c1C(=O)c1ccc(O)cc1				Active	Dose-dependent effect	inactive	inactive	inactive	
CC(O)c1oc2ccccc2c1C(=O)c1cc(Br)c(O)c(Br)c1 (configuration not stated)	Dose-dependent effect	Dose-dependent effect	Dose-dependent effect						
